# Source: patent US20100063065A1 (Inpharmatica Limited, priority 2005, published 2010)
# Target: T1, PPARδ (Homo sapiens, UniProt Q03181)
# T1 construct: fused to amino acids 147-441 of PPARδ downstream of CMV promoter; expressed in transfected cells; host or cells: HEK293 cells, transiently transfected with pFACMV-PPARδ using Fugene
# T1 sequence (Q03181 147-441): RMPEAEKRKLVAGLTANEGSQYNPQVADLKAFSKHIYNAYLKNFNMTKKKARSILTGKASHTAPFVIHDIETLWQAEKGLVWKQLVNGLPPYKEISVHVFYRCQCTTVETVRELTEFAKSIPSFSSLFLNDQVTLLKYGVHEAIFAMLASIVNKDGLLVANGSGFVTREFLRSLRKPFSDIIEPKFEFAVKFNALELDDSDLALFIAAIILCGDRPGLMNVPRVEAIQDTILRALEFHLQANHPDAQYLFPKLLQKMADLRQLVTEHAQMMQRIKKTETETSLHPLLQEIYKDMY
# Assay: Transactivation assay (PPARδ GAL4 assay) in transiently transfected HEK293 cells
# Format: cell-based
# Settings: luciferase reporter, Table 1
# Experimental: Compounds were screened for their functional potency in transiently transfected HEK293 cells for their ability to activate PPAR subtypes. Cells were cultured in DMEM (Invitrogen) supplemented with 10% foetal calf serum, glutamine, penicillin and streptomycin and plated at 10 000 cells/well of a 96-well solid white plate and incubated at 37° C./5% CO2 for 24 hours. Media was removed and the cells washed with PBS. Cells were then transiently transfected using Fugene (Roche) with 50 ng pFACMV-PPARδ (plasmid encoding amino acids 1-147 of the GAL4 DNA binding domain, fused to amino acids 147-441 of PPARδ downstream of CMV promoter) and 250 ng pFR-Luc (reporter plasmid containing 5×GAL4 response elements upstream of a luciferase gene), using a ratio of 3:1 Fugene:DNA. 100 μl of this transfection mixture in DMEM (without foetal calf serum) was added to each well, and the incubation continued for a further 24 hours. The cells are then again washed with PBS prior to the addition of 100 μl reduced serum medium (OptiMEM; Invitrogen). Compounds were added (10 μl in 2% DMSO in OptiMEM) to achieve final concentrations between 0-30 μM. The cells were then returned to the incubator for a further 24 hours. 100 μl of luciferase reagent (Bright Glo, Promega) was added directly to each well, and the luminescence determined using a suitable luminometer.
# To measure the selectivity of compounds, their ability to transactivate GAL4 fusions of PPARα LBD and PPARγ LBD was determined. The activity of compounds was expressed as a percentage relative to control compounds: PPARγ rosiglitazone (BRL 49653), PPARδ GW501516 (11) or PPARα KCL1999000269 (12). EC50 values were calculated by fitting of the data to a sigmoidal dose response curve.
row,SMILES,EC50
1,"CCc1cc(C(=O)c2ccc(Cl)cc2)c(NC(=O)CSC(C)(C)C(=O)O)s1 [Example 24, 2-{[3-(4-Chloro-benzoyl)-5-ethyl-thiophen-2-ylcarbamoyl]-methylsulfanyl}-2-methyl-propionic acid]",100 to 1000 nM
2,"CCc1cc(C(=O)c2ccc(Cl)cc2)c(NC(=O)CC(C)(C)CC(=O)O)s1 [Example 25, 4-[3-(4-Chloro-benzoyl)-5-ethyl-thiophen-2-ylcarbamoyl]-3,3-dimethyl-butyric acid]",1000 to 30000 nM
3,"CCc1cc(C(=O)c2ccc(Cl)cc2)c(NC(=O)CC2(CC(=O)O)CCCC2)s1 [Example 26, (1-{[3-(4-Chloro-benzoyl)-5-ethyl-thiophen-2-ylcarbamoyl]-methyl}-cyclopentyl)-acetic acid]",1000 to 30000 nM
4,"CCc1cc(C(=O)c2cccc(Cl)c2)c(NC(=O)CSCC(=O)O)s1 [Example 27, {[3-(3-Chloro-benzoyl)-5-ethyl-thiophen-2-ylcarbamoyl]-methylsulfanyl}-acetic acid]",100 to 1000 nM
5,"CCc1cc(C(=O)c2ccc(Cl)c(Cl)c2)c(NC(=O)CSCC(=O)O)s1 [Example 28, {[3-(3,4-Dichloro-benzoyl)-5-ethyl-thiophen-2-ylcarbamoyl]-methylsulfanyl}-acetic acid]",< 100 nM
6,"CCc1cc(C(=O)c2ccc(Cl)c(Cl)c2)c(NC(=O)CSC(C)(C)C(=O)O)s1 [Example 29, 2-{[3-(3,4-Dichloro-benzoyl)-5-ethyl-thiophen-2-ylcarbamoyl]-methylsulfanyl}-2-methyl-propionic acid]",< 100 nM
7,"CCc1cc(C(=O)c2ccc(Cl)c(Cl)c2)c(NC(=O)CC(C)(C)CC(=O)O)s1 [Example 30, 4-[3-(3,4-Dichloro-benzoyl)-5-ethyl-thiophen-2-ylcarbamoyl]-3,3-dimethyl-butyric acid]",1000 to 30000 nM
8,"CCc1cc(C(=O)c2ccc(F)c(Cl)c2)c(NC(=O)CSCC(=O)O)s1 [Example 31, {[3-(3-Chloro-4-fluoro-benzoyl)-5-ethyl-thiophen-2-ylcarbamoyl]-methylsulfanyl}-acetic acid]",100 to 1000 nM
9,"CCc1cc(C(=O)c2ccc(F)c(Cl)c2)c(NC(=O)CC(C)(C)CC(=O)O)s1 [Example 32, 4-[3-(3-Chloro-4-fluoro-benzoyl)-5-ethyl-thiophen-2-ylcarbamoyl]-3,3-dimethyl-butyric acid]",1000 to 30000 nM
10,"CCc1cc(C(=O)c2ccc(OC(C)C)cc2)c(NC(=O)CSCC(=O)O)s1 [Example 33, {[5-Ethyl-3-(4-isopropoxy-benzoyl)-thiophen-2-ylcarbamoyl]-methylsulfanyl}-acetic acid]",100 to 1000 nM
11,"CCc1cc(C(=O)c2cccc(Br)c2)c(NC(=O)CSCC(=O)O)s1 [Example 34, {[3-(3-Bromo-benzoyl)-5-ethyl-thiophen-2-ylcarbamoyl]-methylsulfanyl}-acetic acid]",100 to 1000 nM
12,"CCc1cc(C(=O)c2ccc(C#N)cc2)c(NC(=O)CSCC(=O)O)s1 [Example 35, {[3-(4-Cyano-benzoyl)-5-ethyl-thiophen-2-ylcarbamoyl]-methylsulfanyl}-acetic acid]",1000 to 30000 nM
13,"CCc1cc(C(=O)c2ccc(-c3ccccc3)cc2)c(NC(=O)CSCC(=O)O)s1 [Example 36, {[3-(Biphenyl-4-carbonyl)-5-ethyl-thiophen-2-ylcarbamoyl]-methylsulfanyl}-acetic acid]",< 100 nM
14,"CCc1cc(C(=O)c2ccc(-c3ccccc3)cc2)c(NC(=O)CC(C)(C)CC(=O)O)s1 [Example 37, 4-[3-(Biphenyl-4-carbonyl)-5-ethyl-thiophen-2-ylcarbamoyl]-3,3-dimethyl-butyric acid]",100 to 1000 nM
15,"CCc1cc(C(=O)c2ccc(-c3ccc(C(F)(F)F)cc3)cc2)c(NC(=O)CSCC(=O)O)s1 [Example 38, {[5-Ethyl-3-(4′-trifluoromethyl-biphenyl-4-carbonyl)-thiophen-2-ylcarbamoyl]-methylsulfanyl}-acetic acid]",< 100 nM
